Measured values from patent EP0189755A1, “Pharmaceutical composition” (F. HOFFMANN-LA ROCHE AG, priority 1985, dated 1986).

Experiments:
[1] = system: P388 leukemia cells; experiment: Antitumor effects against intraperitoneally implanted P388 leukemia in mice (increase in life span, survival, body weight); details: for dose ILS30: dose of 5'-DFUR or 5-FU giving ILS30; for dose ILS30 / dose ILSmax: GMP 100 mg/kg/day in the combinations, unit not given in Table 4; for dose ILSmax: dose of 5'-DFUR or 5-FU giving ILSmax
Experimental: BDF1 male mice weighing 21 to 23 g were used as experimental animals. P388 leukemia cells were implanted intraperitoneally into the mice. Seven days after the implantation, ascites were collected and diluted with saline to prepare the suspension containing 10^6 P388 leukemia cells in 0.05 ml. The mice were intraperitoneally implanted on day 0 with 10^6 P388 cells. Each group contained 6 mice. 5'-DFUR and GMP were dissolved in saline, alone or combined with each other. The test compounds were administered intraperitoneally from day 1 to day 5. The antitumor effects were evaluated by the increase in life span over control (ILS) calculated by the following formula: [formula] T: Mean survival time (days) in the test drug groups C: Mean survival time (days) in the control group administered intraperitoneally with saline alone
The safety of the drug was evaluated by the therapeutic ratio; the dose ILSmax / the dose ILS30.
In a manner analogous to that described in (1) above except that 5'-DFCR was used instead of 5'-DFUR, the antitumor effects thereof was tested as a referential example.

[2] = Acute toxicity; assay type: in vivo, male ICR mice
Experimental: Groups of 5 weeks old male ICR mice were treated intraperitoneally with 5'-DFUR and GMP at the dosage given in the- following Table 6. Each mice group contained 5 mice. Two weeks after, the number of died mice were counted.

[3] = 5'-DFCR 28 mg/kg/day, without GMP
[4] = 5'-DFCR 55 mg/kg/day, without GMP
[5] = 5'-DFCR 110 mg/kg/day, without GMP
[6] = 5'-DFCR 220 mg/kg/day, without GMP

With `C[C@H]1O[C@@H](n2cc(F)c(N)nc2=O)[C@H](O)[C@@H]1O` [5'-DFCR] the “Survival days (mean±SD)” value [1, 3] was 10.7 ± 1.5 days, the T/C [1, 3] was 111% and the “Survival days (mean±SD)” value [1, 4] was 10.0 ± 1.7 days. For the same compound, the T/C [1, 4] was 104%, the “Survival days (mean±SD)” value [1, 5] was 10.3 ± 0.5 days and the T/C [1, 5] was 107%. For the same compound, the “Survival days (mean±SD)” value [1, 6] was 12.0 ± 1.7 days and the T/C [1, 6] was 125%.
In the case of `C[C@H]1O[C@@H](n2cc(F)c(=O)[nH]c2=O)[C@H](O)[C@@H]1O` [5'-DFUR, 5'-deoxy-5-fluorouri-dine], the “number of died mice/number of tested mice” value ([2]; mouse, in vivo) was 0/5, the “Survival days (mean±SD)” value ([1]; 5'-DFUR 250 mg/kg/day) was 13.3 ± 0.8 days and the T/C ([1]; 5'-DFUR 250 mg/kg/day) was 139%. For the same compound, the ILS ([1]; 5'-DFUR alone 2 mg/kg/day i.p., day 1 to day 5) was 0%, the ILS ([1]; 5'-DFUR alone 4 mg/kg/day i.p., day 1 to day 5) was 1% and the ILS ([1]; 5'-DFUR alone 8 mg/kg/day i.p., day 1 to day 5) was 8%. For the same compound, the ILS ([1]; 5'-DFUR alone 16 mg/kg/day i.p., day 1 to day 5) was 15%, the ILS ([1]; 5'-DFUR alone 32 mg/kg/day i.p., day 1 to day 5) was 21% and the ILS ([1]; 5'-DFUR alone 63 mg/kg/day i.p., day 1 to day 5) was 21%. It also gave an ILS ([1]; 5'-DFUR alone 125 mg/kg/day i.p., day 1 to day 5) of 31%, an ILS ([1]; 5'-DFUR alone 250 mg/kg/day i.p., day 1 to day 5) of 48% and an ILS ([1]; 5'-DFUR alone 500 mg/kg/day i.p., day 1 to day 5) of 24%. The “dose ILS30” value [1] was 125, the “dose ILSmax” value [1] was 250 and the ILSmax ([1]; dose series of 5'-DFUR i.p., GMP at 100 mg/kg/day in the combination group) was 48%.
With `O=c1[nH]cc(F)c(=O)[nH]1` [5-FU, 5-fluorouracil] the “dose ILS30” value [1] was 0.75 and the “dose ILSmax” value [1] was 20.
In the case of `Nc1ncnc2c1ncn2[C@@H]1O[C@H](COP(=O)(O)O)[C@@H](O)[C@H]1O` [AMP, adenosine-5'-monophosphate], the “Survival days (mean±SD)” value ([1]; nucleotide alone 100 mg/kg/day) was 9.5 ± 1.9 days and the T/C ([1]; nucleotide alone 100 mg/kg/day) was 99%.
With `Nc1nc2c(ncn2[C@@H]2O[C@H](COP(=O)(O)O)[C@@H](O)[C@H]2O)c(=O)[nH]1` [GMP, guanosine-5'-monophosphate] the “number of died mice/number of tested mice” value ([2]; GMP 2000 mg/kg, 5'-DFUR 0, intraperitoneally, counted two weeks after) was 0/5, the “number of died mice/number of tested mice” value ([2]; GMP 4000 mg/kg, 5'-DFUR 0, intraperitoneally, counted two weeks after) was 1/5 and the ILS ([1]; GMP alone 100 mg/kg/day i.p. (5'-DFUR 0)) was -3%. For the same compound, the ILS ([1]; GMP alone 300 mg/kg/day i.p. (5'-DFUR 0)) was 5%, the ILS ([1]; GMP alone 500 mg/kg/day i.p. (5'-DFUR 0)) was 8% and the ILS ([1]; GMP alone 1000 mg/kg/day i.p. (5'-DFUR 0)) was 1%. For the same compound, the “influence on ILS” value ([1]; GMP alone (Table 3)) was “no influence observed”, the “Survival days (mean±SD)” value ([1]; nucleotide alone 100 mg/kg/day) was 8.8 ± 0.8 days and the T/C ([1]; nucleotide alone 100 mg/kg/day) was 92%.
